Test results taken from patent US4824937A, “Synthetic natriuretic peptides” (501 Advanced Peptide Development, Ltd., priority 1986, dated 1989).
Ends that are not written are not given here.

Test system: rabbit thoracic aorta strips
Experiment: Vasorelaxant activity against noradrenaline-induced tension in aorta strips
Details: for Relative Potency: potency of BG-3009 taken arbitrarily as 100; for Ratio (noradrenaline EC50 in the presence of compound divided by EC50 with noradrenaline alone): added 5 min before noradrenaline
Experimental: The vasorelaxant activities of the SNP of this invention are determined in vitro using freshly prepared rabbit thoracic aorta strips, helically cut according to the method of Furchgott et al., 1953 J. Pharmacol. Exp. Therap. 108, 129. One end of each strip is attached to a holding rod, the other end is equipped with a silk thread which is kept under a tension of about 5 g, and the complete assembly is kept over night at 4° C. in oxygenated Krebs solution. On the day of the experiment each strip is set up in a 10 ml bath of oxygenated (5% CO2) Krebs solution at 37° C. and the thread is attached to an isometric force transducer (Grass Instruments Model FT.03) connected to a polygraph (Grass Instruments Model 5). A resting tension of 5 g is applied to each strip and is readjusted until a stable resting tension is attained (45-60 minutes). The strips are then challenged repeatedly with the same dose of noradrenaline to ensure that the induced increase in tension is uniform. The stock solution of noradrenaline bitartrate (Sigma Chemical Co.) is made up in 0.001N HCl, and dilutions are freshly prepared in deionized water containing 0.0001M ascorbic acid and are kept protected from light during the experiments. In each experiment two cumulative full dose-response determinations to noradrenaline alone are carried out consecutively on one strip (time control). On the other strips dose-response determinations are done with noradrenaline alone, and then repeated five minutes after having added the compound to be tested to concentrations of 2, 5, 50, and 500 ng/ml, respectively. The tension elicited by each concentration of noradrenaline is expressed as a percentage of the maximal response obtained with noradrenaline, and the concentration of noradrenaline producing a tension equal to 50% of the maximal response is calculated (EC50). The same calculations are also carried out with the results obtained in the presence of the various concentrations of the compound to be tested, and the EC50 thus obtained is divided by the EC50 obtained in the absence of said compound, to arrive at a ration which is clear indication of the potency of the respective compound.
The SNP of formula 1 in which R^1 is H-D-Tyr, R^2 is Ile, and R^3 is OH, identified by the code number 05-22-0318 is tested for its vasorelaxant activities and compared with a known ANP composed of 28 amino acid residues and identified by the code number BG-3009. The test method is described above in some detail. Two rabbits are sacrificed and the thoracic aorta prepared from each animal is helically cut so as to obtain five strips from each aorta. One strip from each aorta is used for time control and is exposed to the full range of concentrations of noradrenaline alone at the beginning and at the end of the experiment, and the concentrations of noradrenaline giving 50% of the maximal response are calculated (EC50). […] One strip from each of the remaining two pairs of strips from each aorta is then exposed to the full range of concentrations of noradrenaline alone as described above, and the responses are noted. The other strip from the same pair is first exposed to concentrations of 2, 5, 50, and 500 ng/ml of the compound to be tested, respectively, and five minutes after having added the above concentrations of the compound to be tested the strip is challenged with noradrenaline at increasing concentrations and the responses obtained are noted again. The EC50 obtained in the presence of the respective concentration of the compound to be tested is then divided by the EC50 obtained in the absence of said compound with noradrenaline alone, and the ratio of the two EC50's is calculated to give a clear measure of the vasorelaxant properties of said compound. Furthermore, when taking the potency of the reference compound having the code number BG-3009 arbitrarily as 100 the relative potencies of the above SNP (code No. 05-22-0318) at the respective levels of concentration are also calculated. […]

Substance: BG-3009: known ANP composed of 28 amino acid residues, identical with the ANP described by Flynn et al. (SLRRSSCFGGRIDRIGAQSGLGCNSFRY; not fully specified; ends and bridges not checked; UniProt P01161 123-150, looked up)
- Relative Potency (2 ng/ml): 100
- Relative Potency (5 ng/ml): 100
- Relative Potency (50 ng/ml): 100
- Relative Potency (500 ng/ml): 100
- Ratio (noradrenaline EC50 in the presence of compound divided by EC50 with noradrenaline alone) (compound concentration 2 ng/ml): 2.9
- Ratio (noradrenaline EC50 in the presence of compound divided by EC50 with noradrenaline alone) (compound concentration 5 ng/ml): 3.8
- Ratio (noradrenaline EC50 in the presence of compound divided by EC50 with noradrenaline alone) (compound concentration 50 ng/ml): 25.8
- Ratio (noradrenaline EC50 in the presence of compound divided by EC50 with noradrenaline alone) (compound concentration 500 ng/ml): 26.1
